According to patent publication US11357779B2 (G1 Therapeutics, Inc., priority 2018, dated 2022):
Where two headings read alike, the source gives them in different places.

Legend:
BT474 tumor = assay: Murine HER2+ ER+ CBX model, tumor growth and survival; assay type: in vivo; conditions: BT474 tumor-containing mice; Compound I 50 mg/kg by mouth once a day for 56 days
Description: Mice containing a BT474 tumor were treated with vehicle, Compound I (50 mg/kg by mouth once a day for 56 days), lapatinib+trastuzumab, or Compound I+lapatinib+trastuzumab.

[1] = human, in vivo
Description: Absolute neutrophil count (ANC) was determined from the blood sample obtained from subjects described in Example 1 on day 22 using standard methods.
Absolute neutrophil count (ANC) was also determined for blood samples obtained from subjects in all dosing cohorts (200 mg QD, 300 mg QD, 400 mg QD, 500 mg QD, 100 mg BID, and 150 mg BID dosage of Form B of Compound II).

tumor = conditions: mice, single dosage of 100 mg/kg; cited from earlier work
[2] = Apparent volume of distribution (Vd/F); assay type: in vivo; conditions: human, plasma, oral; 200 mg QD of compound II
Description: “Vd/F” (Liters) as used herein means the theoretical volume that would be necessary to contain the total amount of an administered drug at the same concentration that it is observed in the blood plasma. It is generally defined as the distribution of a medication between plasma and the rest of the body after oral or parenteral dosing. “Vd/F” as used herein is calculated by using the terminal elimination rate constant, which is derived mathematically from the concentration vs time curve to extrapolate a value of plasma concentration at time zero. Volume of distribution for oral drugs is normally expressed as Vd/F or Vz/F. The skilled artisan is familiar with calculating Vd/F or Vz/F.
The apparent volume of distribution (Vd/F) was calculated from the terminal rate constant (ke) derived from the plasma concentration-versus-time data provided for Compound I in Example 1 when dosed with 200 mg QD of Form B of Compound II.

[3] = Slurry conversion of impure Form B to pure Form B (small scale and scale-up, XRPD); assay type: physicochemical
Description: Approximately 16 small scale slurry experiments were carried out by varying the slurry concentration, temperature, HCl acid molar concentration, and content in the aqueous acetone mixtures as well as the water content. Slurries of impure Form B were performed in a given solvent system at targeted calculated concentration at ambient or elevated temperatures for various time/durations. The solids were isolated by vacuum filtration and submitted for XRPD analysis. The specific experimental conditions are detailed in Table 109 where solvent system ratios are by volume.
The slurries in acidic aqueous acetone mixtures at an elevated temperature of 50° C. […] FIG. 19 compares XRPD patterns of Sample 3 and 5 to the starting material of the experiments, impure Form B and to pure Form B. For comparison purposes, the samples were also compared to a second impure sample of Form B, (Impure Form B Sample 2 in FIG. 19). This second impure Form B contained larger amounts of the unknown Form than the impure Form B previously described in Example 8.
Several slurry experiments were performed in water:acetone solvent systems starting with impure Form B and varying the water:acetone ratio, slurry concentration, and time. Based on the initial slurry results, experiments in 1:2 (v/v) water:acetone at ambient temperature were performed with aliquots taken after 16 hours (Sample 6) and 20.5 hours (Sample 7). The slurry in this solvent system was conducted at a concentration of 100-125 mg/mL and ambient temperature. The XRPD patterns of the resulting materials were consistent with pure Form B (FIG. 20).
In an effort to improve the yield, water:acetone 1:3 (v/v) was used at 150 mg/mL concentration (Samples 13 and 14) however, the conversion was not completed even after 4 days (FIG. 21). Therefore, one experiment was performed using water:acetone 1:2 (v/v) slurry for 18 hours and then adding acetone to reach ratio water:acetone 1:4 (v/v) followed by slurry for 4 hours (Sample 12). The XRPD pattern of the resulting material was consistent with Form B, however, one of the undesired peaks reappeared shifted from 3.95 °2θ to 4.2 °2θ (FIG. 21).
The Julabo FP50 temperature control unit contained Julabo Thermal C10 fluid and the reactor temperature was measured with a K-type PTFE temperature probe. The experiments were carried out with Lara Control software version 2.3.5.0. The software tracked circulator temperature, vessel temperature, and stir rate, recording readings every tenth of a second throughout the experiment.
The reactor vessel was charged with the solids of impure Form B (58.86 g) in 471 mL of a water:acetone 1:2 (v/v) solvent system achieving 125 mg/mL slurry concentration (Samples 20-23). The resulting slurry was stirred at 30° C. for up to 43 hours with stirring speed of 400 rpm. The slurry was cooled to 25° C. over 30 minutes, discharged from the reactor vessel, and immediately slowly filtered (drop by drop) to […]. A water:acetone 1:2 (v/v) wash solution was prepared in advance and used to wash the filter cake in one portion.
Pulls were taken usually at the 20th hour and if needed at later time points (Table 110).
The conversion of impure Form B to pure Form B was conducted in water:acetone 1:2 (v/v) slurry at 125 mg/mL concentration and 30° C. for 43 hours. Very slow filtration was observed and the wet cake was air-dried at ambient conditions for 3.5 hours followed by vacuum drying at ambient temperature and 15 in Hg for 0.5 hour and then at ˜27 in Hg for 3.5 hours yielding 49.26 g ([…]).

[4] = Dynamic vapor sorption (moisture sorption) experiment; conditions: for stability in the moisture sorption experiment (XRPD of dried sample): after DVS
Description: Dynamic vapor sorption experiments were performed on Form A, Form B, and Form D. Table 103 provides the results of the DVS experiment.

Row | SMILES | Median OS (BT474 tumor) [days] | (AUC0-24,ss)/ANC ([1]; 200 mg) | (AUC0-24,ss)/ANC ([1]; 300 mg) | (AUC0-24,ss)/ANC ([1]; 400 mg) | distribution to tumor (tumor) | Vd/F [2] [L] | XRPD Result ([3]; 125 mg/mL Slurry, 30° C., 20 h) | XRPD Result ([3]; 125 mg/mL Slurry, 30° C., 24 h) | XRPD Result ([3]; 125 mg/mL Slurry, 30° C., 42 h) | XRPD Result ([3]; 125 mg/mL Slurry, 30° C., 43 h VF, washed with 50 mL of H2O:acetone 1:2, Air-dried for 3.5 h) | XRPD Result ([3]; Vacuum drying, 22° C., 0.5 h, 15 in Hg, 22° C. 1.5 h, 27-28 in Hg) | XRPD Result ([3]; Vacuum drying, 22° C., 2.0 h, 27 in Hg) | stability in the moisture sorption experiment (XRPD of dried sample) ([4]; dried at 60° C. and 0% RH) | moisture adsorbed ([4]; 60% RH) [wt %] | moisture adsorbed ([4]; 90% RH) [wt %] | % wt change at 60% RH ([4]; DVS, 60% RH) [% wt] | % wt change at 90% RH ([4]; DVS, 90% RH) [% wt] | XRPD (post DVS) ([4]; after moisture sorption experiment, dried at 60° C. and 0% RH)
1 | CC(C)N1CCN(c2ccc(Nc3ncc4cc5n(c4n3)C3(CCCCC3)CNC5=O)nc2)CC1 [Compound I, 2′-((5-(4-isopropylpiperazin-1-yl)pyridin-2-yl)amino)-7′,8′-dihydro-6′H-spiro[cyclohexane-1,9′-pyrazino[1′,2′:1,5]pyrrolo[2,3-d]pyrimidin]-6′-one] | 25 | 0.10 | 0.47 | 0.15 | concentrates in the tumor | 15200 | – | – | – | – | – | – | – | – | – | – | – | –
2 | CC(C)N1CCN(c2ccc(Nc3ncc4cc5n(c4n3)C3(CCCCC3)CNC5=O)nc2)CC1 [Compound II, 2′-((5-(4-isopropylpiperazin-1-yl)pyridin-2-yl)amino)-7′,8′-dihydro-6′H-spiro[cyclohexane-1,9′-pyrazino[1′,2′:1,5]pyrrolo[2,3-d]pyrimidin]-6′-one] | – | – | – | – | – | – | Form B + small broad | B + broad peaks at 4.2° | Form B | Form B | Form B | Form B | remained in Form B | – | – | – | – | –
3 | CC(C)N1CCN(c2ccc(Nc3ncc4cc5n(c4n3)C3(CCCCC3)CNC5=O)nc2)CC1 [Form B] | – | – | – | – | – | – | – | – | – | – | – | – | stable | 5.8 | 5.9 | 5.8 | 5.9 | Form B
